Assays:
Format in all cases: cell-based
Proteus mirabilis = experiment: MIC against Gram-negative bacteria: Proteus mirabilis; details: 5×10^5 CFU/mL
Method in brief: (§1)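 MIC = lowest concentration of recombinant protein showing no growth. Test proteins: purified human-derived EGF domain proteins, two-fold dilution series, three wells per concentration; inoculum 5×10^5 CFU/mL in LB; incubation 37° C with shaking at 175 rpm.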

Klebsiella pneumonia = experiment: MIC against Gram-negative bacteria: Klebsiella pneumonia; details: 5×10^5 CFU/mL
Method in brief: as §1

Pseudomonas aeruginosa = experiment: MIC against Gram-negative bacteria: Pseudomonas aeruginosa; details: 5×10^5 CFU/mL
Method in brief: as §1

Proteus vulgaris = experiment: MIC against Gram-negative bacteria: Proteus vulgaris; details: 5×10^5 CFU/mL
Method in brief: as §1

Aeromonas hydrophila = experiment: MIC against Gram-negative bacteria: Aeromonas hydrophila; details: 5×10^5 CFU/mL
Method in brief: as §1

Serratia marcescens = experiment: MIC against Gram-negative bacteria: Serratia marcescens; details: 5×10^5 CFU/mL
Method in brief: as §1

E. coli BL21 = experiment: MIC against Gram-negative bacteria: E. coli BL21; details: 5×10^5 CFU/mL
Method in brief: as §1

Citrobacter diversus = experiment: MIC against Gram-negative bacteria: Citrobacter diversus; details: 5×10^5 CFU/mL
Method in brief: as §1

Enterobacter cloacae = experiment: MIC against Gram-negative bacteria: Enterobacter cloacae; details: 5×10^5 CFU/mL
Method in brief: as §1

E. coli DH5α = experiment: Antibacterial activity: MIC and growth curve against E. coli DH5α in 96-well plate; details: minimal inhibitory concentration against E. coli DH5α; 96-well plate, 5×10^5 CFU/mL, 37° C., judged after 8 h
Method in brief: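 Log-phase DH5α (OD600 about 0.5, 37° C, 185 rpm in LB) was pelleted, resuspended in fresh LB and seeded at 5×10^5 CFU/mL with recombinant protein at 50, 25 and 12.5 μg/mL (two-fold series), in triplicate. Plates were shaken at 175 rpm, 37° C, and OD600 was read every 30 min. MIC was the lowest concentration with no growth.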

Moraxella catarrhalis = experiment: MIC against Gram-negative bacteria: Moraxella catarrhalis; details: 5×10^5 CFU/mL
Method in brief: as §1

[1] = Proteus mirabilis, 96-well plate, 37° C., 10 h
[2] = Klebsiella pneumonia, 96-well plate, 37° C., 10 h
[3] = Pseudomonas aeruginosa, 96-well plate, 37° C., 10 h
[4] = Proteus vulgaris, 96-well plate, 37° C., 10 h
[5] = Aeromonas hydrophila, 96-well plate, 37° C., 10 h
[6] = Serratia marcescens, 96-well plate, 37° C., 10 h
[7] = E. coli BL21, 96-well plate, 37° C., 10 h
[8] = Citrobacter diversus, 96-well plate, 37° C., 10 h
[9] = Enterobacter cloacae, 96-well plate, 37° C., 10 h
[10] = Moraxella catarrhalis, 96-well plate, 37° C., 10 h
[11] = Proteus mirabilis, 10 h cultivation at 37° C.
[12] = Klebsiella pneumonia, 10 h cultivation at 37° C.
[13] = Pseudomonas aeruginosa, 10 h cultivation at 37° C.
[14] = Proteus vulgaris, 10 h cultivation at 37° C.
[15] = Aeromonas hydrophila, 10 h cultivation at 37° C.
[16] = Serratia marcescens, 10 h cultivation at 37° C.
[17] = E. coli BL21, 10 h cultivation at 37° C.
[18] = Citrobacter diversus, 10 h cultivation at 37° C.
[19] = Enterobacter cloacae, 10 h cultivation at 37° C.
[20] = Moraxella catarrhalis, 10 h cultivation at 37° C.

Substance: PRT1305 (SANACSAFKCHHGQCHISDQGEPYCLCQPGFSGEHCQ; listed as Homo sapiens)
- MIC against P. mirabilis (Proteus mirabilis; [1]): 25 µg/mL
- MIC against K. pneumonia (Klebsiella pneumonia; [2]): 50 µg/mL
- MIC against P. aeruginosa (Pseudomonas aeruginosa; [3]): 12.5 µg/mL
- MIC against P. vulgaris (Proteus vulgaris; [4]): 25 µg/mL
- MIC against A. hydrophila (Aeromonas hydrophila; [5]): 50 µg/mL
- MIC against S. marcescens (Serratia marcescens; [6]): 12.5 µg/mL
- MIC against E. coli BL21 (E. coli BL21; [7]): 50 µg/mL
- MIC against C. diversus (Citrobacter diversus; [8]): 12.5 µg/mL
- MIC against E. cloacae (Enterobacter cloacae; [9]): 12.5 µg/mL
- MIC (E. coli DH5α): 12.5 µg/mL
- MIC against M. catarrhalis (Moraxella catarrhalis; [10]): 50 µg/mL

Substance: PRT1422 (DVDDCILEPSPCPQRCVNTQGGFECHCYPNYDLVDGECV; listed as Homo sapiens)
- MIC against P. mirabilis (Proteus mirabilis; [11]): 12.5 µg/mL
- MIC against K. pneumonia (Klebsiella pneumonia; [12]): 50 µg/mL
- MIC against P. aeruginosa (Pseudomonas aeruginosa; [13]): 12.5 µg/mL
- MIC against P. vulgaris (Proteus vulgaris; [14]): 50 µg/mL
- MIC against A. hydrophila (Aeromonas hydrophila; [15]): 50 µg/mL
- MIC against S. marcescens (Serratia marcescens; [16]): 12.5 µg/mL
- MIC against E. coli BL21 (E. coli BL21; [17]): 12.5 µg/mL
- MIC against C. diversus (Citrobacter diversus; [18]): 12.5 µg/mL
- MIC against E. cloacae (Enterobacter cloacae; [19]): 12.5 µg/mL
- MIC (E. coli DH5α): 12.5 µg/mL
- MIC against M. catarrhalis (Moraxella catarrhalis; [20]): 50 µg/mL

Substance: PRT1378 (AIQTCPGDCRGRGECHDGSCVCKDGYAGEDCG; listed as Homo sapiens)
- MIC against P. mirabilis (Proteus mirabilis; [11]): 25 µg/mL
- MIC against K. pneumonia (Klebsiella pneumonia; [12]): 25 µg/mL
- MIC against P. aeruginosa (Pseudomonas aeruginosa; [13]): 12.5 µg/mL
- MIC against P. vulgaris (Proteus vulgaris; [14]): 12.5 µg/mL
- MIC against A. hydrophila (Aeromonas hydrophila; [15]): 12.5 µg/mL
- MIC against S. marcescens (Serratia marcescens; [16]): 25 µg/mL
- MIC against E. coli BL21 (E. coli BL21; [17]): 25 µg/mL
- MIC against C. diversus (Citrobacter diversus; [18]): 25 µg/mL
- MIC against E. cloacae (Enterobacter cloacae; [19]): 12.5 µg/mL
- MIC (E. coli DH5α): 50 µg/mL
- MIC against M. catarrhalis (Moraxella catarrhalis; [20]): 12.5 µg/mL

Substance: PRT580 (CDCDPMGSQDGGRCDSHDDPALGLVSGQCRCKEHVVGTRCQQCRDGFFGLSISDRLGCRR; listed as Homo sapiens)
- MIC against P. mirabilis (Proteus mirabilis; 96-well plate, 37° C., 10 h): 12.5 µg/mL
- MIC against K. pneumonia (Klebsiella pneumonia; 96-well plate, 37° C., 10 h): 25 µg/mL
- MIC against P. aeruginosa (Pseudomonas aeruginosa; 96-well plate, 37° C., 10 h): 12.5 µg/mL
- MIC against P. vulgaris (Proteus vulgaris; 96-well plate, 37° C., 10 h): 50 µg/mL
- MIC against A. hydrophila (Aeromonas hydrophila; 96-well plate, 37° C., 10 h): 25 µg/mL
- MIC against S. marcescens (Serratia marcescens; 96-well plate, 37° C., 10 h): 12.5 µg/mL
- MIC against E. coli BL21 (E. coli BL21; 96-well plate, 37° C., 10 h): 25 µg/mL
- MIC against C. diversus (Citrobacter diversus; 96-well plate, 37° C., 10 h): 12.5 µg/mL
- MIC against E. cloacae (Enterobacter cloacae; 96-well plate, 37° C., 10 h): 12.5 µg/mL
- MIC (E. coli DH5α): 12.5 µg/mL
- MIC against M. catarrhalis (Moraxella catarrhalis; 96-well plate, 37° C., 10 h): 50 µg/mL

Substance: PRT71 (VDACHLNPCENMGACVRSPGSPQGYVCECGPSHYGPYCE; listed as Homo sapiens)
- MIC (μg/mL) P. mirabilis (Proteus mirabilis; [1]): 12.5 µg/mL
- MIC (μg/mL) K. pneumonia (Klebsiella pneumonia; [2]): 25 µg/mL
- MIC (μg/mL) P. aeruginosa (Pseudomonas aeruginosa; [3]): 12.5 µg/mL
- MIC (μg/mL) P. vulgaris (Proteus vulgaris; [4]): 12.5 µg/mL
- MIC (μg/mL) A. hydrophila (Aeromonas hydrophila; [5]): 25 µg/mL
- MIC (μg/mL) S. marcescens (Serratia marcescens; [6]): 12.5 µg/mL
- MIC (μg/mL) E. coli BL21 (E. coli BL21; [7]): 25 µg/mL
- MIC (μg/mL) C. diversus (Citrobacter diversus; [8]): 12.5 µg/mL
- MIC (μg/mL) E. cloacae (Enterobacter cloacae; [9]): 50 µg/mL
- MIC (E. coli DH5α): 50 µg/mL
- MIC (μg/mL) M. catarrhalis (Moraxella catarrhalis; [10]): 50 µg/mL

Substance: PRT665 (GIDRCAAGATNVCGPGTCVNLPDGYRCVCSPGYQLHPSQAYCT; listed as Homo sapiens)
- MIC P. mirabilis (Proteus mirabilis; 96-well plate, 37° C., 10 h): 25 µg/mL
- MIC K. pneumonia (Klebsiella pneumonia; 96-well plate, 37° C., 10 h): 12.5 µg/mL
- MIC P. aeruginosa (Pseudomonas aeruginosa; 96-well plate, 37° C., 10 h): 25 µg/mL
- MIC P. vulgaris (Proteus vulgaris; 96-well plate, 37° C., 10 h): 50 µg/mL
- MIC A. hydrophila (Aeromonas hydrophila; 96-well plate, 37° C., 10 h): 50 µg/mL
- MIC S. marcescens (Serratia marcescens; 96-well plate, 37° C., 10 h): 25 µg/mL
- MIC E. coli BL21 (E. coli BL21; 96-well plate, 37° C., 10 h): 50 µg/mL
- MIC C. diversus (Citrobacter diversus; 96-well plate, 37° C., 10 h): 25 µg/mL
- MIC E. cloacae (Enterobacter cloacae; 96-well plate, 37° C., 10 h): 25 µg/mL
- MIC (E. coli DH5α): 25 µg/mL
- MIC M. catarrhalis (Moraxella catarrhalis; 96-well plate, 37° C., 10 h): 12.5 µg/mL

Substance: PRT369 (DVDECLSSPCVSGVCRNLAGSYTCKCGPGSRLDPSGTFCL; listed as Homo sapiens)
- MIC (Proteus mirabilis; P. mirabilis, 10 h cultivation at 37° C.): 12.5 µg/mL
- MIC (Klebsiella pneumonia; K. pneumonia, 10 h cultivation at 37° C.): 50 µg/mL
- MIC (Pseudomonas aeruginosa; P. aeruginosa, 10 h cultivation at 37° C.): 12.5 µg/mL
- MIC (Proteus vulgaris; P. vulgaris, 10 h cultivation at 37° C.): 50 µg/mL
- MIC (Aeromonas hydrophila; A. hydrophila, 10 h cultivation at 37° C.): 12.5 µg/mL
- MIC (Serratia marcescens; S. marcescens, 10 h cultivation at 37° C.): 12.5 µg/mL
- MIC (E. coli BL21; [17]): 25 µg/mL
- MIC (Citrobacter diversus; C. diversus, 10 h cultivation at 37° C.): 25 µg/mL
- MIC (Enterobacter cloacae; E. cloacae, 10 h cultivation at 37° C.): 25 µg/mL
- MIC (E. coli DH5α): 50 µg/mL
- MIC (Moraxella catarrhalis; M. catarrhalis, 10 h cultivation at 37° C.): 50 µg/mL
